Reference: the NIST ThermoML archive (doi:10.1016/j.tca.2016.02.005)
± gives the expanded uncertainty stated by the source.

Key:
[1] = xn = mol fraction of the nth substance listed; details: 101.3 kPa, Liquid, x1 = 1; for speed of sound: Frequency=3 MHz, Sing-around technique in a fixed-path interferometer; for mass density: Vibrating tube method
[2] = refractive index (Na D-line) (dimensionless); xn = mol fraction of the nth substance listed; details: 101.3 kPa, Liquid, Standard Abbe refractometry, x1 = 1
[3] = refractive index (Na D-line) (dimensionless); details: 101.3 kPa, Liquid, Standard Abbe refractometry
[4] = 101.3 kPa, Liquid; for speed of sound: Frequency=3 MHz, Sing-around technique in a fixed-path interferometer; for mass density: Vibrating tube method

Structure (SMILES)	refractive index ([3]; 298.15 K)	refractive index ([3]; 308.15 K)	refractive index ([3]; 318.15 K)	refractive index ([3]; 328.15 K)	speed of sound ([4]; 298.15 K)	mass density ([4]; 298.15 K)	speed of sound ([4]; 308.15 K)	mass density ([4]; 308.15 K)	speed of sound ([4]; 318.15 K)	mass density ([4]; 318.15 K)	speed of sound ([4]; 328.15 K)	mass density ([4]; 328.15 K)	also measured
CCn1cc[n+](C)c1.F[B-](F)(F)F [1-ethyl-3-methylimidazolium tetrafluoroborate] + COCCO													speed of sound ([1]; 298.15 K): 1622.9 ± 1.6 m/s; mass density ([1]; 298.15 K): 1277.6 ± 2 kg/m3; speed of sound ([1]; 308.15 K): 1599.5 ± 1.6 m/s; mass density ([1]; 308.15 K): 1269.9 ± 2 kg/m3; speed of sound ([1]; 318.15 K): 1576.5 ± 1.6 m/s; mass density ([1]; 318.15 K): 1262.1 ± 2 kg/m3; speed of sound ([1]; 328.15 K): 1553.8 ± 1.6 m/s; mass density ([1]; 328.15 K): 1254.6 ± 2 kg/m3; refractive index ([2]; 298.15 K): 1.4103 ± 0.0004; refractive index ([2]; 308.15 K): 1.4077 ± 0.0004; refractive index ([2]; 318.15 K): 1.4051 ± 0.0004; refractive index ([2]; 328.15 K): 1.4023 ± 0.0004
CCn1cc[n+](C)c1.F[B-](F)(F)F [1-ethyl-3-methylimidazolium tetrafluoroborate]	1.4103 ± 0.0004	1.4077 ± 0.0004	1.4051 ± 0.0004	1.4023 ± 0.0004	1622.9 ± 1.6 m/s	1277.6 ± 2 kg/m3	1599.5 ± 1.6 m/s	1269.9 ± 2 kg/m3	1576.5 ± 1.6 m/s	1262.1 ± 2 kg/m3	1553.8 ± 1.6 m/s	1254.6 ± 2 kg/m3	
COCCO [2-methoxyethan-1-ol]	1.4003 ± 0.0004	1.3961 ± 0.0004	1.3917 ± 0.0004	1.3876 ± 0.0004	1345.8 ± 1.5 m/s	960.9 ± 2 kg/m3	1311.3 ± 1.5 m/s	951.7 ± 2 kg/m3	1276.4 ± 1.5 m/s	942.7 ± 2 kg/m3	1241.9 ± 1.5 m/s	933.4 ± 2 kg/m3	
